Measured values from patent US10941132B2, “Pyrazole derivatives” (HUA MEDICINE (SHANGHAI) Ltd., priority 2016, dated 2021).

Target: T1, recombinant rat mGluR5 (Rattus norvegicus, UniProt P31424)
T1 construct: expressed in transfected cells
Experiment: Functional calcium flux assay (FLIPR), antagonist evaluation against glutamate-evoked [Ca2+]i increase
Format: cell-based
Settings: Table 1; HEK293 cells stably expressing recombinant rat mGluR5; 15 min incubation of test compound, then submaximal glutamate; read-out: IC50 value (FLIPR assay)
Procedure, shortened: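 HEK293 cells stably expressing rat mGluR5 were loaded with Fluo-8, preincubated 15 min with compound, then stimulated with submaximal glutamate; [Ca2+]i read by FLIPR. Inhibition relative to glutamate alone was fitted to a 4-parameter logistic to derive IC50.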

T1 sequence (P31424 21-1203): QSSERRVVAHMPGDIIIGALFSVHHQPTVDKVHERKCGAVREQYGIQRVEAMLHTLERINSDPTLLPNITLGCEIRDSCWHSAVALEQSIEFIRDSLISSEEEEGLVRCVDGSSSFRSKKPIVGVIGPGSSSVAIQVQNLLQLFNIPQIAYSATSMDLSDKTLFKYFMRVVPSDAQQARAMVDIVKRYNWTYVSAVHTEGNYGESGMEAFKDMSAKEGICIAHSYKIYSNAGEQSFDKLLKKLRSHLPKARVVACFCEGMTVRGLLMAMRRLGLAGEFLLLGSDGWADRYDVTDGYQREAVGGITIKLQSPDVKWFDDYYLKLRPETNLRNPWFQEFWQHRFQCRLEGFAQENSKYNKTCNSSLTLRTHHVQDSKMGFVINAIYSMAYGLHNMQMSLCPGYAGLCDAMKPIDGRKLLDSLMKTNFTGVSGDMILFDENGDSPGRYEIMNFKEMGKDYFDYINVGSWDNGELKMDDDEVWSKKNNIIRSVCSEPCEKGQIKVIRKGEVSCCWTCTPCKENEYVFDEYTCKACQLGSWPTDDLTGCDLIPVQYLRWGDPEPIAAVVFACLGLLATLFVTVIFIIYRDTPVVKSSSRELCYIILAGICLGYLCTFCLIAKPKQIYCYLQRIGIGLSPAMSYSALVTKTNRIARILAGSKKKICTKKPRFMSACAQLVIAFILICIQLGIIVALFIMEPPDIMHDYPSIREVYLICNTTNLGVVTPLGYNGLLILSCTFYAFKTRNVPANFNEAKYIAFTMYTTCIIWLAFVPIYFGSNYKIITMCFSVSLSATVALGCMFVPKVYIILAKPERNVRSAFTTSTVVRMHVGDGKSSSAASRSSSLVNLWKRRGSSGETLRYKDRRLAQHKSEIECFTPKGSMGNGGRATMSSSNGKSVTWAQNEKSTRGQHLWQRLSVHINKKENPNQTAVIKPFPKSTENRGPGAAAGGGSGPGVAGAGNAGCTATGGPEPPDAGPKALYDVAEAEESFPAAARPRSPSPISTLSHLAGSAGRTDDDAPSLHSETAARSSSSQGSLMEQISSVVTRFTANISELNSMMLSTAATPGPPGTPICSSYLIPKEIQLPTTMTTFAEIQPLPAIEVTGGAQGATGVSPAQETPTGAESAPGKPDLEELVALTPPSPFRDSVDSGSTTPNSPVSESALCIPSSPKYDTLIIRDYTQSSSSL

IC50 [nM]	SMILES
1000 to 5000	COCCOc1nn(-c2ccc(OC(F)(F)F)cc2)cc1C#Cc1ccccn1 [Compound 31, 2-((3-(2-methoxyethoxy)-1-(4-(trifluoromethoxy)phenyl)-1H-pyrazol-4-yl)ethynyl)pyridine]
≤ 500	FC(F)(F)Oc1ccc(-n2cc(C#Cc3ncccn3)cn2)cc1 [Compound 93]
500 to 1000	COCCOc1nn(-c2ccc(F)cn2)cc1C#Cc1ccccn1 [Compound 64, S-fluoro-2-(3-(2-methoxyethoxy)-4-(pyridin-2-ylethynyl)-1H-pyrazol-1-yl)pyridine]
≤ 500	Fc1ccc(-n2cc(C#Cc3ncccn3)c(Cl)n2)cc1 [Compound 43, 2-((3-chloro-1-(4-fluorophenyl)-1H-pyrazol-4-yl)ethynyl)pyrimidine]
≤ 500	FC(F)(F)Oc1ccc(-n2ncc(C#Cc3ccccn3)c2Cl)cc1 [Compound 21]
1000 to 5000	Fc1cncc(-n2cc(C#Cc3ncccn3)c(Cl)n2)c1 [Compound 45, 2-((3-chloro-1-(5-fluoropyridin-3-yl)-1H-pyrazol-4-yl)ethynyl) pyrimidine]
≤ 500	Cc1c(C#Cc2ccccn2)cnn1-c1cc(F)cc(C#N)c1 [Compound 50, 3-fluoro-5-(5-methyl-4-(pyridin-2-ylethynyl)-1H-pyrazol-1-yl) benzonitrile]
1000 to 5000	FC(F)(F)Oc1ccc(-n2cc(C#Cc3ncccn3)c(Cl)n2)cc1 [Compound 41, 2-((3-chloro-1-(4-(trifluoromethoxy)phenyl)-1H-pyrazol-4-yl)ethynyl)pyrimidine]
≤ 500	Fc1ccc(-n2cc(C#Cc3ccccn3)cn2)cn1 [Compound 23]
≤ 500	Cc1nn(-c2ccc(OC(F)(F)F)cc2)c(C)c1C#Cc1ccccn1 [Compound 4, 2-((3,5-dimethyl-1-(4-(trifluoromethoxy)phenyl)-H-pyrazol-4-yl)ethynyl)pyridine]
1000 to 5000	Cc1c(C#Cc2ccccn2)c(N(C)C)nn1-c1cc(F)cc(C#N)c1 [Compound 15, 3-(3-(dimethylaminuteso)-5-methyl-4-(2-(pyridin-2-yl)ethynyl)-1H-pyrazol-1-yl)-5-fluorobenzonitrile]
≤ 500	COc1c(C#Cc2ccccn2)c(C)nn1-c1ccc(F)cc1 [Compound 9, 2-((1-(4-fluorophenyl)-5-methoxy-3-methyl-1H-pyrazol-4-yl)ethynyl)pyridine]

Same assay, conditions: Table 2; HEK293 cells stably expressing recombinant rat mGluR5; 15 min incubation of test compound, then submaximal glutamate; read-out: IC50 (FLIPR assay)

IC50 [nM]	SMILES
1000 to 5000	Cc1cc(C#Cc2ncccn2)nn1-c1ccc(OC(F)(F)F)cc1 [Compound 133, 2-((5-methyl-1-(4-(trifluoromethoxy)phenyl)-1H-pyrazol-3-yl)ethynyl)pyrimidine]
≤ 500	Cc1cc(C#Cc2ccnc(Cl)c2)nn1-c1cc(F)cc(C#N)c1 [Compound 100, 3-(3-((2-chloropyridin-4-yl)ethynyl)-5-methyl-1H-pyrazol-1-yl)-5-fluorobenzonitrile]
≤ 500	Cc1cc(C#Cc2cccc(Cl)c2)nn1-c1cc(F)cc(C#N)c1 [Compound 99, 3-(3-((3-chlorophenyl)ethynyl)-5-methyl-1H-pyrazol-1-yl)-5-fluorobenzonitrile]
1000 to 5000	N#Cc1cc(F)cc(-n2ccc(C#Cc3cccnc3)n2)c1 [Compound 106, 3-fluoro-5-(3-(pyridin-3-ylethynyl)-1H-pyrazol-1-yl)benzonitrile]
1000 to 5000	Cc1cc(C#Cc2ccnc(Cl)c2)nn1-c1ccc(OC(F)(F)F)cc1 [Compound 135, 2-chloro-4-((5-methyl-1-(4-(trifluoromethoxy)phenyl)-1H-pyrazol-3-yl)ethynyl)pyridine]
≤ 500	Cc1cc(C#Cc2ccnc(Cl)c2)nn1-c1ccc(F)cc1 [Compound 131, 2-chloro-4-((1-(4-fluorophenyl)-5-methyl-1H-pyrazol-3-yl)ethynyl) pyridine]
500 to 1000	Fc1ccc(-n2cc(Cl)c(C#Cc3ccccn3)n2)nc1 [Compound 69, 2-(4-chloro-3-(pyridin-2-ylethynyl)-1H-pyrazol-1-yl)-5-fluoropyridine]
≤ 500	Cc1cc(C#Cc2ccccn2)nn1-c1ccc(F)cc1 [Compound 126]
